From US10065990B2, “Cyclic peptide compound, and preparation method, pharmaceutical composition and use thereof” (HANGZHOU GUANYU BIO-MEDICAL CO., LTD, priority 2013, dated 2018)
Where two headings read alike, the source gives them in different places.

How the values were obtained:
HDAC1 = HDAC1 (Homo sapiens, UniProt Q13547); test: HDAC biochemical activity measurement (fluorescent substrate deacetylation);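 further: fluorogenic acetyl-lysine substrate (20 µM) deacetylated by HDAC1, then developer releases fluorophore read at 360 nm excitation and 460 nm emission, inhibitor incubated 30 min at 37 °C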
Sequence of HDAC1 (Q13547 whole entry, species assumed): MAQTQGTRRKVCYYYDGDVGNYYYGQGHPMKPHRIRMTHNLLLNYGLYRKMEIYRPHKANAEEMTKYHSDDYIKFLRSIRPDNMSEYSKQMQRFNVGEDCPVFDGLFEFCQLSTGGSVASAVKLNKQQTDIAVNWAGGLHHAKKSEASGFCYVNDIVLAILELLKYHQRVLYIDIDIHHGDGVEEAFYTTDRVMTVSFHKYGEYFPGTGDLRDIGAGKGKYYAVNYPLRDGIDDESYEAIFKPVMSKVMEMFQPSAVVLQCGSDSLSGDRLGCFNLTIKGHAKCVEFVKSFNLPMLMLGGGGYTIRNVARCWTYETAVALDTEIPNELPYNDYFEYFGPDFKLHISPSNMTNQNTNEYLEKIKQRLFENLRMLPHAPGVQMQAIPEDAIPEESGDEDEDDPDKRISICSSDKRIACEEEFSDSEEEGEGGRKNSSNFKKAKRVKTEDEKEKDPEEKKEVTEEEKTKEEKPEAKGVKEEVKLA

HDAC7 = target: T1, HDAC7 (Homo sapiens, UniProt Q8WUI4); test: as above; conditions: HDAC7; 37° C. 30 minutes;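 further: fluorogenic deacetylation assay using acetyl-lysine substrate at 20 µM, enzyme and compound incubated 30 min at 37 °C, then developer added, fluorescence read at 360/460 nm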
T1 sequence (Q8WUI4 1-952): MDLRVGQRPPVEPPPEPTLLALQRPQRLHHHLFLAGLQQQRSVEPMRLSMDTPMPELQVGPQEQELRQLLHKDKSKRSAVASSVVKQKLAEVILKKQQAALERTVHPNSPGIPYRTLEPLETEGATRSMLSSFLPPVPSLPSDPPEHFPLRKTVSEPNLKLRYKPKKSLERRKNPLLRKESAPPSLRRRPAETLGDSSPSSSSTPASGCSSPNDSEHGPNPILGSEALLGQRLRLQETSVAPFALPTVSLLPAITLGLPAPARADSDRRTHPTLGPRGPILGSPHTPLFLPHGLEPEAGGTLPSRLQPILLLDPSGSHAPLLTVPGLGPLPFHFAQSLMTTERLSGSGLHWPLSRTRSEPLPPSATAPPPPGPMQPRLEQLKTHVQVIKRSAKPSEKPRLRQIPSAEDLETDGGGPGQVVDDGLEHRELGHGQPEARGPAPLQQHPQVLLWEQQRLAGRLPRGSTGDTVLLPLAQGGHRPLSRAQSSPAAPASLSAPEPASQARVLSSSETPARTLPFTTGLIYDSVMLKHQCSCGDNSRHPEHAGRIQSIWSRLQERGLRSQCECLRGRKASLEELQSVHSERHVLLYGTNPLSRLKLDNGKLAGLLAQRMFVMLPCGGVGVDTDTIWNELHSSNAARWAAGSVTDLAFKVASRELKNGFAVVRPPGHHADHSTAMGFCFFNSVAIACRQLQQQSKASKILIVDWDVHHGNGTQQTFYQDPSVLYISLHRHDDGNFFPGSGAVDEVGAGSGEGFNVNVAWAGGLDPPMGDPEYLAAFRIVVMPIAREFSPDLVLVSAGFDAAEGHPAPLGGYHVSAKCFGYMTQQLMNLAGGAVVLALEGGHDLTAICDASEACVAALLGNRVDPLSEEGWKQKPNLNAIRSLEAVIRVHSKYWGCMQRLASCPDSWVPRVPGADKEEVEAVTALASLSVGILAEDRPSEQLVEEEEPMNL

[1] = tested on: A549 (human lung cancer cells); test: MTT cancer cell growth inhibition; type: cell-based; conditions: MTT, 72 hours incubation, read-out: GI50 A54
Method in brief: (§1)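 Cells grown in DMEM or RPMI 1640 with 10% FBS were seeded at 1500/well and left overnight at 37° C., 5% CO2. Compounds at final 10^−5 to 10^−10 M were added in triplicate for 72 h. MTT was then added for 4 h, formazan dissolved in DMSO, and absorbance read at 570 nm to derive GI50.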

[2] = tested on: BGC-823 (human gastric cancer cells); test: MTT cancer cell growth inhibition; type: cell-based; conditions: MTT, 72 hours incubation, read-out: GI50 BG
Method in brief: as §1

[3] = tested on: Bel-7402 (human hepatoma cells); test: MTT cancer cell growth inhibition; type: cell-based; conditions: MTT, 72 hours incubation, Bel-7402 cells; read-out: GI50 Bel-7402
Method in brief: as §1

[4] = tested on: DU145 (human prostate cancer cells); test: MTT cancer cell growth inhibition; type: cell-based; conditions: MTT, 72 hours incubation, read-out: GI50 Du1
Method in brief: as §1

[5] = tested on: H1975 (non-small cell lung adenocarcinoma); test: MTT cancer cell growth inhibition; type: cell-based; conditions: MTT, 72 hours incubation, H1975 cells; read-out: GI50 H1975
Method in brief: as §1

[6] = tested on: HCC827 (human non-small cell lung cancer cells); test: MTT cancer cell growth inhibition; type: cell-based; conditions: MTT, 72 hours incubation, HCC827 cells; read-out: GI50 HCC827
Method in brief: as §1

[7] = tested on: HT1080 (human fibrosarcoma cells); test: MTT cancer cell growth inhibition; type: cell-based; conditions: MTT, 72 hours incubation, read-out: GI50 HT1
Method in brief: as §1

[8] = tested on: Hela (human cervical cancer cells); test: MTT cancer cell growth inhibition; type: cell-based; conditions: MTT, 72 hours incubation, read-out: GI50 Hela
Method in brief: as §1

[9] = tested on: Huh-7 (human hepatoma cells); test: MTT cancer cell growth inhibition; type: cell-based; conditions: MTT, 72 hours incubation, Huh-7 cells; read-out: GI50 Huh-7
Method in brief: as §1

[10] = tested on: K562 (human leukemia cells); test: MTT cancer cell growth inhibition; type: cell-based; conditions: MTT, 72 hours incubation, K562 cells; read-out: GI50 K562
Method in brief: as §1

[11] = tested on: KBM-5 (human chronic myelogenous leukemia); test: MTT cancer cell growth inhibition; type: cell-based; conditions: MTT, 72 hours incubation, KBM-5 cells; read-out: GI50 KBM-5
Method in brief: as §1

[12] = tested on: KBM5-T315I (human chronic myelogenous leukemia); test: MTT cancer cell growth inhibition; type: cell-based; conditions: MTT, 72 hours incubation, KBM5-T315I cells; read-out: GI50 KBM5-T315I
Method in brief: as §1

[13] = tested on: MCF-7 (human breast cancer cells); test: MTT cancer cell growth inhibition; type: cell-based; conditions: 72 hours incubation, read-out: GI50 MCF
Method in brief: as §1

[14] = tested on: MDA-MB-231 (breast cancer cells); test: MTT cancer cell growth inhibition; type: cell-based; conditions: read-out: GI50 MDA-MB-231; MTT, 72 hours incubation, MDA-MB-231 cells
Method in brief: as §1

[15] = tested on: MOLT-4 (human acute lymphoblastic leukemia cells); test: MTT cancer cell growth inhibition; type: cell-based; conditions: MTT, 72 hours incubation, read-out: GI50 Mol
Method in brief: as §1

[16] = tested on: N-87 (human gastric cancer cells); test: MTT cancer cell growth inhibition; type: cell-based; conditions: MTT, 72 hours incubation, N-87 cells; read-out: GI50 N-87
Method in brief: as §1

[17] = tested on: PANC-1 (Pac-1, human pancreatic cancer cells); test: MTT cancer cell growth inhibition; type: cell-based; conditions: MTT, 72 hours incubation, read-out: GI50 PAN
Method in brief: as §1

[18] = tested on: SGC-7901 (human gastric cancer cells); test: MTT cancer cell growth inhibition; type: cell-based; conditions: MTT, 72 hours incubation, SGC-7901 cells; read-out: GI50 SGC-7901
Method in brief: as §1

[19] = tested on: U937 (human leukemia cells); test: MTT cancer cell growth inhibition; type: cell-based; conditions: MTT, 72 hours incubation, read-out: GI50 U93
Method in brief: as §1

[20] = tested on: lncap (prostate cancer cells); test: MTT cancer cell growth inhibition; type: cell-based; conditions: MTT, 72 hours incubation, read-out: GI50 lnca
Method in brief: as §1

HDAC2 = HDAC2 (Homo sapiens, UniProt Q92769); test: HDAC biochemical activity measurement (fluorescent substrate deacetylation);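 further: HDAC2 enzyme with an acetyl-lysine fluorescent substrate, then developer added, fluorescence read at excitation 360 nm and emission 460 nm, inhibition measured across several compound concentrations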; conditions: 37° C. 30 minutes
Sequence of HDAC2 (Q92769 whole entry, species assumed): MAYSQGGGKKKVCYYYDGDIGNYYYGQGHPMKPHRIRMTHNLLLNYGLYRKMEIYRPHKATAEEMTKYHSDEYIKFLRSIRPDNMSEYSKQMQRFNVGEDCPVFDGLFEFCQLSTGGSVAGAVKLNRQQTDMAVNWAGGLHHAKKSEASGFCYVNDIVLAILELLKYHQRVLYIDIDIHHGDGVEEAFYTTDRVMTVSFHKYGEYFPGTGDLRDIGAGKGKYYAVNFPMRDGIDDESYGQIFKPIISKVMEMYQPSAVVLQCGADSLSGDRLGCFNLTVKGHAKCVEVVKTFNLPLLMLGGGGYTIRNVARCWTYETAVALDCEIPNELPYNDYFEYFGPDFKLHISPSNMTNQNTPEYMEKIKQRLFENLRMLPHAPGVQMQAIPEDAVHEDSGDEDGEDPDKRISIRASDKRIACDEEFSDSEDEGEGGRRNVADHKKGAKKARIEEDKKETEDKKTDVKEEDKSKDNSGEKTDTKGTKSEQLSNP

HDAC8 = target: T2, HDAC8 (Homo sapiens, UniProt Q9BY41); test: as above; conditions: 37° C. 30 minutes
T2 sequence (Q9BY41 1-377): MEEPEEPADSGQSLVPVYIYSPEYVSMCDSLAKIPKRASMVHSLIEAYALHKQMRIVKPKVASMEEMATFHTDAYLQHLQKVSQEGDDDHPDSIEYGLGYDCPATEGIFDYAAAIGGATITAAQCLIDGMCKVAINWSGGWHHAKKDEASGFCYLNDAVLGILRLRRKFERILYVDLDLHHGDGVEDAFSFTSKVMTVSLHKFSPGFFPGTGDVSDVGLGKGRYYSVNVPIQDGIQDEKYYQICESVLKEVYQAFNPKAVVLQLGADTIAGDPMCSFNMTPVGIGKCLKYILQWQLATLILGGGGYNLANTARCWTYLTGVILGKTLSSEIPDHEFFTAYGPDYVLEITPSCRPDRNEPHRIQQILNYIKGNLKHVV
Protocol: The chemical activity of the compound is determined according to the degree of deacetylation inhibition of the HDAC enzyme. This experiment measured the degree of deacetylation related to tumor proliferation and metastasis of HDAC1, HDAC2, HDAC3, HDAC8, HDAC11 five subtypes HDAC enzymes. After the substrate containing an acetylated lysine side chain and HDAC enzyme are labeled with a fluorescent label, the fluorescent substrate is de acetyl. The fluorescent labeled substrate is cleaved by the enzyme, and the fluorescent substance is released, which generates 460 nm emission light under the excitation of 360 nm light.
HDAC substrate was diluted with reaction buffer to 200M (reaction concentration of 20M), the HDAC enzyme was diluted to the appropriate concentration, then added different concentrations of the test compounds and acted at 37° C. 30 minutes, and then added the same volume of 2-times concentration substrate developing solution (developer), incubated at room temperature for 15 minutes.

HDAC3 = HDAC3 (Homo sapiens, UniProt O15379); test: as above; conditions: read-out: IC50 HDAC3; HDAC3; 37° C. 30 minutes;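 further: fluorogenic acetyl-lysine substrate (20 µM) deacetylated by HDAC3, then developer added for 15 min at room temperature, release of fluorophore read at excitation 360 nm, emission 460 nm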
Sequence of HDAC3 (O15379 whole entry, species assumed): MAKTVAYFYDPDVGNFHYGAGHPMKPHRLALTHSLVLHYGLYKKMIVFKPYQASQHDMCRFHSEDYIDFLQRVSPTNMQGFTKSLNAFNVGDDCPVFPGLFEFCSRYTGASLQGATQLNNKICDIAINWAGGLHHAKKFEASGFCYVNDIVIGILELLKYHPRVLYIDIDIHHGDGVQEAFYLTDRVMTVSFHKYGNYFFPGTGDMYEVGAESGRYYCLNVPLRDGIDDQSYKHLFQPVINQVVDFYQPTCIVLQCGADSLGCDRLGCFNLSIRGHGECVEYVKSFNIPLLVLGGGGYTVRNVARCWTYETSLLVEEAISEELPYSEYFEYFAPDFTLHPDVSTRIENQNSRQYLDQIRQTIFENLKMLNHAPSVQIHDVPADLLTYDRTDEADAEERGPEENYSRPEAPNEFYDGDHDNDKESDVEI
Sequence of HDAC3 (Q9Y618 395-489 partner limits assumed, species assumed): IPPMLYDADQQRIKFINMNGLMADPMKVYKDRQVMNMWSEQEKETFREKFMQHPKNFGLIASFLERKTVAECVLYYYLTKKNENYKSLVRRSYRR

HDAC11 = target: T3, HDAC11 (Homo sapiens, UniProt Q96DB2); test: as above; conditions: read-out: IC50 HDAC11; HDAC11; 37° C. 30 minutes;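 further: HDAC11 enzyme acting on an acetyl-lysine fluorogenic substrate, then a developer frees the fluorophore, read at excitation 360 nm and emission 460 nm, IC50 over a compound dilution series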
T3 sequence (Q96DB2 1-347): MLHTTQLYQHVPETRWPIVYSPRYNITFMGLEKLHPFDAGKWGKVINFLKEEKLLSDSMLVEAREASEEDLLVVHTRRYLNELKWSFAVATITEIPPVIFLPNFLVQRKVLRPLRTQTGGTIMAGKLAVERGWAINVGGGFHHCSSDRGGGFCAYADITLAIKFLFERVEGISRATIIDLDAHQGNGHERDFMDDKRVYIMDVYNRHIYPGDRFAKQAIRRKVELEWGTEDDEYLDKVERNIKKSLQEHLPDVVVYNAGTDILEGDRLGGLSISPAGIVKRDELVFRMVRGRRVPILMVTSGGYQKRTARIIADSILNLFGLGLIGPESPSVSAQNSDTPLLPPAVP

[21] = HDAC1, 37° C. 30 minutes, read-out: IC50 HDAC1

| Compound | IC50 (HDAC1; [21]) | IC50 HDAC7 (HDAC7) | GI50 ([1]; A549 cells) | GI50 ([2]; BGC-823 cells) | GI50 [3] | GI50 ([4]; DU145 cells) | GI50 [5] | GI50 [6] | GI50 ([7]; HT1080 cells) | GI50 ([8]; Hela cells) | GI50 [9] | GI50 [10] | GI50 [11] | GI50 [12] | GI50 ([13]; MCF-7 cells) | GI50 [14] | GI50 ([15]; MOLT-4 cells) | GI50 [16] | IC50 (HDAC2) | IC50 (HDAC11) | other results |
| --- | --- | --- | --- | --- | --- | --- | --- | --- | --- | --- | --- | --- | --- | --- | --- | --- | --- | --- | --- | --- | --- |
| C/C=C1\NC(=O)c2ccc(SC)c(n2)CNC(=O)C[C@@H](/C=C/CCSC(C)=O)OC(=O)[C@H](C)NC1=O [Compound 215] | 66 nM | no activity | 50 nM | 40 nM | 19 nM | 30 nM | 37 nM | 15 nM | 20 nM | 20 nM | 65 nM | 48 nM | 25 nM | 42 nM | 30 nM | 47 nM | 70 nM | 17 nM |  |  | GI50 ([17]; PANC-1 cells): 40 nM; GI50 [18]: 48 nM; GI50 ([19]; U937 cells): 90 nM; GI50 ([20]; lncap cells): 100 nM |
| C/C=C1\NC(=O)c2ccc(F)c(n2)CNC(=O)C[C@@H](/C=C/CCSC=O)OC(=O)[C@H](C(C)C)NC1=O [Example 53] | 84 nM | no activity |  |  |  |  |  |  |  |  |  |  |  |  |  |  |  |  | 43 nM | 105 nM | IC50 (HDAC8): 26 nM; IC50 (HDAC3): 29 nM |
| C/C=C1\NC(=O)c2cc(F)cc(n2)CNC(=O)C[C@@H](/C=C/CCSC(C)=O)OC(=O)[C@H](C(C)C)NC1=O [Compound 49] | 16 nM |  |  |  |  |  |  |  |  |  |  |  |  |  |  |  |  |  | 46 nM | 73 nM | IC50 (HDAC1; Table 3, column C, read-out: IC50 HDAC1, C (six-membered ring with substituents)): 16 nM; IC50 (HDAC8): 38 nM; GI50 [1]: 60 nM; GI50 [2]: 70 nM; GI50 [4]: 10 nM; GI50 [7]: 70 nM; GI50 [8]: 80 nM; GI50 [13]: 50 nM; GI50 [15]: 20 nM; GI50 [17]: 70 nM; GI50 [19]: 30 nM; GI50 [20]: 20 nM; IC50 (HDAC3): 48 nM |
| C/C=C1\NC(=O)c2nc(ccc2SC)CNC(=O)C[C@@H](/C=C/CCSC(C)=O)OC(=O)[C@H](C)NC1=O [Compound 213] |  | no activity | 70 nM | 30 nM | 53 nM | 20 nM | 76 nM | 28 nM | 20 nM | 50 nM | 35 nM | 28 nM | 78 nM | 54 nM | 90 nM | 37 nM | 40 nM | 42 nM | 34 nM | 87 nM | GI50 ([17]; PANC-1 cells): 80 nM; GI50 [18]: 58 nM; GI50 ([19]; U937 cells): 70 nM; GI50 ([20]; lncap cells): 70 nM |
